Source: ChEMBL document CHEMBL5120885, “Neopetrosins A-D and Haliclorensin D, Indole-C-Mannopyranosides and a Diamine Alkaloid Isolated from the South China Sea Marine Sponge Neopetrosia chaliniformis” (J Nat Prod, 2022)
The source made the active and inactive calls. The calls are words filed in the database; no cut-off is given here.

Assays:
Type in all cases: functional, organism-based
Danio rerio [1] = species on record: Danio rerio; test: Hepatoprotective activity in isoniazid induced liver injury in transgenic zebrafish T3 (L- FABP:EGFP) model assessed as change in liver size at 20 uM incubated for 72 hrs by fluorescence microscopic analysis
Danio rerio [2] = species on record: Danio rerio; test: Hepatoprotective activity in ethanol induced liver injury in transgenic zebrafish T3 (L- FABP:EGFP) model assessed as change in liver size at 20 uM incubated for 72 hrs by fluorescence microscopic analysis
Danio rerio [3] = species on record: Danio rerio; test: Hepatoprotective activity in ethanol induced liver injury in transgenic zebrafish T3 (L- FABP:EGFP) model assessed as change in liver size at 50 uM incubated for 72 hrs by fluorescence microscopic analysis
Danio rerio [4] = species on record: Danio rerio; test: Hepatoprotective activity in isoniazid induced liver injury in transgenic zebrafish T3 (L- FABP:EGFP) model assessed as change in liver size at 50 uM incubated for 72 hrs by fluorescence microscopic analysis

SMILES	Activity (Danio rerio [1])	Activity (Danio rerio [2])	Activity (Danio rerio [3])	Activity (Danio rerio [4])
NCC(=O)c1c([C@H]2O[C@H](CO)[C@@H](O)[C@H](O)[C@@H]2O)[nH]c2ccccc12	Active	Active		
C[C@@H]1NC(=O)[C@H](Cc2c([C@H]3O[C@H](CO)[C@@H](O)[C@H](O)[C@@H]3O)[nH]c3ccccc23)NC1=O	Active	Active		
C[S+](CC[C@H](N)C(=O)[O-])C[C@H]1O[C@@H](n2cnc3c(N)ncnc32)[C@H](O)[C@@H]1O (stereo partly drawn)			Active	Active
O=C1O[C@H]2[C@@H](O)[C@H](O)[C@@H](CO)O[C@@H]2c2[nH]c3ccccc3c21	Active	Active		
